Experimental data published in US9433621B2, “Substituted pyridine and pyrimidine derivatives and their use in treating viral infections” (Merck Sharp & Dohme Corp., priority 2010, dated 2016).

test system: HCV replicon; assay: Cell-Based HCV Replicon Assay; conditions: Hepatitis C virus, 72 h; Table IV; replicon cells, day 3, real time PCR; EC90 = concentration for ΔCT=3.2 over baseline; read-out: EC90
Procedure: Cell-Based HCV Replicon Assay
To measure cell-based anti-HCV activity of the compounds of the present invention, replicon cells were seeded at 5000 cells/well in 96-well collagen I-coated Nunc plates in the presence of the compound of the invention. Various concentrations of a compound of the invention, typically in 10 serial 2-fold dilutions, were added to the assay mixture, the starting concentration of the compound ranging from 25 μM to 1 μM. The final concentration of DMSO was 0.5%, fetal bovine serum was 10%, in the assay media. Cells were harvested on day 3 by the addition of 1× cell lysis buffer (Ambion cat #8721). The replicon RNA level was measured using real time PCR (Taqman assay). The amplicon was located in 5B. The PCR primers were: 5B.2F, ATGGACAGGCGCCCTGA; 5B.2R, […]; the probe sequence was FAM-labeled CACGCCATGCGCTGCGG. GAPDH RNA was used as endogenous control and was amplified in the same reaction as NS5B (multiplex PCR) using primers and VIC-labeled probe recommended by the manufacturer (PE Applied Biosystem). The real-time RT-PCR reactions were run on ABI PRISM® 7900HT Sequence Detection System using the following program: 48′C for 30 min, 95′C for 10 min, 40 cycles of 95′C for 15 sec, 60′C for 1 min. The ΔCT values (CT5B-CTGAPDH) were plotted against the concentration of test compound and fitted to the sigmoid dose-response model using Graph Pad PRISM® software. EC50 was defined as the concentration of inhibitor necessary to achieve ΔCT=1 over the projected baseline; EC90 the concentration necessary to achieve ΔCT=3.2 over the baseline. Alternatively, to quantitate the absolute amount of replicon RNA, a standard curve was established by including serially diluted T7 transcripts of replicon RNA in the Taqman assay. All Taqman reagents were from PE Applied Biosystems. Such an assay procedure was described in detail in e.g. Malcolm et al., Antimicrobial Agents and Chemotherapy 50: 1013-1020 (2006).
HCV Replicon assay data for compounds of the invention that were tested were obtained using the above method.

SMILES	EC90 [µM]
CO[C@H](C)CNc1nc(C)c(-c2nc3c(C)nccc3s2)c(N[C@@H]2C[C@H](C(C)(C)O)[C@@H](O)[C@H]2O)n1 [Example 3030]	0.104
Cc1nc(NCC2CC2)nc(N[C@@H]2C[C@H](CS(=O)(=O)c3ccncc3)[C@@H](O)[C@H]2O)c1-c1nc2c(C)nccc2s1 [Example 3580]	0.012
CCc1cc2sc(-c3c(C)nc(NCC(F)(F)F)nc3N[C@@H]3C[C@H](CO)[C@@H](O)[C@H]3O)nc2c(CC)n1 [Example 4706]	0.045
Cc1nc(NCC(F)(F)C(F)(F)F)nc(N[C@@H]2C[C@H](C(C)(C)O)[C@@H](O)[C@H]2O)c1-c1nc2c(C)nccc2s1 [Example 4346]	0.043
CO[C@@H](C)CNc1nc(C)c(-c2nc3c(C)nccc3s2)c(N[C@@H]2C[C@H](C(C)(C)O)[C@@H](O)[C@H]2O)n1 [Example 3031]	0.104

same assay, conditions: Hepatitis C virus, 72 h; Table V, class codes; replicon cells, day 3, real time PCR; EC90 = concentration for ΔCT=3.2 over baseline; read-out: EC90 (uM) range

SMILES	EC90 [µM]
CCOCCNc1nc(C)c(-c2nc3cnc(C)cc3s2)c(N[C@@H]2C[C@H](CO)[C@@H](O)[C@H]2O)n1 [Example 4911]	< 0.5
Cc1nccc2sc(-c3cnc(NCC4CC4)nc3N[C@@H]3C[C@H](C(C)(C)O)[C@@H](O)[C@H]3O)nc12 [Example 4935]	< 0.5
COCCNc1nc(C)c(-c2nc3c(C4CC4)nccc3s2)c(N[C@@H]2C[C@H](C(=O)Nc3nccs3)[C@@H](O)[C@H]2O)n1 [Example 4926]	< 0.5
COCCNc1nc(C)c(-c2nc3c(C4CC4)nccc3s2)c(N[C@@H]2C[C@H](C(=O)NC(C)(C)C)[C@@H](O)[C@H]2O)n1 [Example 4930]	< 0.5
Cc1cc2sc(-c3c(C)nc(N[C@H](C)C4CCC4)nc3N[C@@H]3C[C@H](CO)[C@@H](O)[C@H]3O)nc2cn1 [Example 4912]	< 0.5
Cc1nc(NCc2cccc(F)c2)nc(N[C@@H]2C[C@H](CO)[C@@H](O)[C@H]2O)c1-c1nc2c(C3CC3)nccc2s1 [Example 4902]	< 0.5
Cc1cc2sc(-c3c(C)nc(NCC(F)(F)F)nc3N[C@@H]3C[C@H](CO)[C@@H](O)[C@H]3O)nc2cn1 [Example 4910]	< 0.5
CS(=O)(=O)C[C@H]1C[C@@H](Nc2nc(N)ncc2-c2nc3c(C4CC4)nccc3s2)[C@H](O)[C@@H]1O [Example 4919]	< 0.5
Cc1nc(N)nc(N[C@@H]2C[C@H](CO)[C@@H](O)[C@H]2O)c1-c1nc2cnc(C3CC3)cc2s1 [Example 4945]	< 0.5
Cc1nc(N[C@H](C)c2ccc(OC(F)(F)F)cc2)nc(N[C@@H]2C[C@H](C(=O)Nc3nccs3)[C@@H](O)[C@H]2O)c1-c1nc2c(C3CC3)nccc2s1 [Example 4928]	< 0.5
C[C@@H](Nc1ncc(-c2nc3c(C4CC4)nccc3s2)c(N[C@@H]2C[C@H](CS(C)(=O)=O)[C@@H](O)[C@H]2O)n1)c1ccc(OC(F)(F)F)cc1 [Example 4921]	0.5 to 5
Cc1nc(NCC2CC2)nc(N[C@@H]2C[C@H](C(=O)Nc3nccs3)[C@@H](O)[C@H]2O)c1-c1nc2c(C3CC3)nccc2s1 [Example 4927]	< 0.5

same assay, conditions: Hepatitis C virus; HCV Replicon assay, EC90 range, Table VI; read-out: EC90

SMILES	EC90 [µM]
CCNC(=O)N[C@H]1C[C@@H](Nc2nc(NC(C)(C)C)nc(C)c2-c2nc3c(C4CC4)nccc3s2)[C@H](O)[C@@H]1O [Example 5094]	< 0.5
CCO[C@H]1C[C@H](CNc2nc(C)c(-c3nc4c(C)nccc4s3)c(N[C@@H]3C[C@H](C4(O)CCCC4)[C@@H](O)[C@H]3O)n2)C1 [Example 5112]	< 0.5
Cc1nc(NCCC(C)(C)C)nc(N[C@@H]2C[C@H](C(C)(C)O)[C@@H](O)[C@H]2O)c1-c1nc2c(C)nccc2s1 [Example 5262]	< 0.5
CSCCCNc1nc(C)c(-c2nc3c(C)nccc3s2)c(N[C@@H]2C[C@H](C(C)(C)O)[C@@H](O)[C@H]2O)n1 [Example 5261]	< 0.5
CCc1nccc2sc(-c3c(C)nc(N)nc3N[C@@H]3C[C@H](CS(=O)(=O)c4ccc(F)c(C)c4)[C@@H](O)[C@H]3O)nc12 [Example 5021]	< 0.5
Cc1nc(N[C@H](C)C2CCC2)nc(N[C@@H]2C[C@H](C(F)F)[C@@H](O)[C@H]2O)c1-c1nc2c(C3CC3)nccc2s1 [Example 5186]	< 0.5
Cc1nc(NCCS(=O)(=O)C(C)(C)C)nc(N[C@@H]2C[C@H](C(C)(C)O)[C@@H](O)[C@H]2O)c1-c1nc2c(C)nccc2s1 [Example 5250]	< 0.5
Cc1nc(NCCSC(C)(C)C)nc(N[C@@H]2C[C@H](CS(C)(=O)=O)[C@@H](O)[C@H]2O)c1-c1nc2c(C3CC3)nccc2s1 [Example 5007]	< 0.5
Cc1nc(NC(C)(C)C)nc(N[C@@H]2C[C@H](NC(=O)NC3CC3)[C@@H](O)[C@H]2O)c1-c1nc2c(C3CC3)nccc2s1 [Example 5095]	< 0.5
Cc1cc(S(=O)(=O)C[C@H]2C[C@@H](Nc3nc(NCC(F)(F)F)nc(C)c3-c3nc4c(C)nccc4s3)[C@H](O)[C@@H]2O)ccc1F [Example 5009]	< 0.5
CO[C@@H](CNc1nc(C)c(-c2nc3cnccc3s2)c(N[C@@H]2C[C@H](C(C)(C)O)[C@@H](O)[C@H]2O)n1)c1ccc(F)cc1 [Example 5228]	< 0.5
CCSCCNc1nc(C)c(-c2nc3c(C)nccc3s2)c(N[C@@H]2C[C@H](C(C)(C)O)[C@@H](OC)[C@H]2OC)n1 [Example 5267]	< 0.5
Cc1nc(NC2(C3CC3)CC2)nc(NC2(CO)CCCC2)c1-c1nc2c(C)nccc2s1 [Example 5121]	< 0.5
CO[C@@H]1[C@H](OC)[C@@H](C(C)(C)O)C[C@H]1Nc1nc(N)nc(C)c1-c1nc2c(C)nccc2s1 [Example 5268]	< 0.5
Cc1nc(NC[C@@H](C)OC(C)C)nc(N[C@@H]2C[C@H](C(C)(C)O)[C@@H](O)[C@H]2O)c1-c1nc2c(C)nccc2s1 [Example 5259]	< 0.5
Cc1nc(NCC(C)C)nc(N[C@@H]2C[C@H](C(C)(F)F)[C@@H](O)[C@H]2O)c1-c1nc2c(C3CC3)nccc2s1 [Example 5175]	< 0.5

SMILES	EC90 [µM]
COC[C@@H](C)Nc1nc(C)c(-c2nc3c(C)nccc3s2)c(N[C@@H]2C[C@H](C3(O)CC3)[C@@H](O)[C@H]2O)n1 [Example 5240]	< 0.5
CO[C@@H](CNc1nc(C)c(-c2nc3c(C)nccc3s2)c(N[C@@H]2C[C@H](CO)[C@@H](O)[C@H]2O)n1)c1ccc(F)cc1 [Example 5226]	< 0.5
Cc1nc(NCC(F)(F)C(F)(F)F)nc(N[C@@H]2C[C@H](C(C)(C)O)[C@@H](O)[C@H]2O)c1-c1nc2c(N)nccc2s1 [Example 5035]	< 0.5
Cc1nc(N)nc(N[C@@H]2C[C@H](CO)[C@@H](O)[C@H]2O)c1-c1nc2c(C3CC3)nccc2s1 [Example 5258]	< 0.5
Cc1nc(N[C@H](C)C2CC2)nc(N[C@@H]2C[C@H](NC(=O)NCc3ccc(F)cc3)[C@@H](O)[C@H]2O)c1-c1nc2c(C3CC3)nccc2s1 [Example 5023]	< 0.5
CCS(=O)(=O)C(C)(C)[C@H]1C[C@@H](Nc2nc(NCc3c(F)cc(F)cc3F)nc(C)c2-c2nc3c(C4CC4)nccc3s2)[C@H](O)[C@@H]1O [Example 5061]	< 0.5
Cc1nc(NCC2CC2)nc(N[C@@H]2C[C@H](C(C)(C)N=[N+]=[N-])[C@@H](O)[C@H]2O)c1-c1nc2c(C3CC3)nccc2s1 [Example 5051]	< 0.5
Cc1nc(NCCS(N)(=O)=O)nc(N[C@@H]2C[C@H](C(C)(C)O)[C@@H](O)[C@H]2O)c1-c1nc2c(C)nccc2s1 [Example 5281]	0.5 to 5
CO[C@H](C)CNc1nc(C)c(-c2nc3c(C)nccc3s2)c(N[C@@H]2C[C@H](C(C)(C)OC)[C@@H](O)[C@H]2O)n1 [Example 5275]	< 0.5
CCC(O)(CC)[C@H]1C[C@@H](Nc2nc(NCC3(C)CC3)nc(C)c2-c2nc3c(C)nccc3s2)[C@H](O)[C@@H]1O [Example 5270]	< 0.5
Cc1nc(NCC2CC2)nc(N[C@@H]2C[C@H](Cc3nccs3)[C@@H](O)[C@H]2O)c1-c1nc2cnccc2s1 [Example 5290]	< 0.5
CO[C@H]1C[C@@H](CNc2nc(C)c(-c3nc4c(C5CC5)nccc4s3)c(N[C@@H]3C[C@H](CO)[C@@H](O)[C@H]3O)n2)C1 [Example 5292]	< 0.5
Cc1nc(N)nc(N[C@@H]2C[C@H](C(C)C)[C@@H](O)[C@H]2O)c1-c1nc2c(C)nccc2s1 [Example 5286]	< 0.5
CCc1nccc2sc(-c3c(C)nc(NCC4CC4)nc3N[C@@H]3C[C@H](CS(=O)(=O)c4ccc(F)c(C)c4)[C@@H](O)[C@H]3O)nc12 [Example 5017]	< 0.5
Cc1nc(N[C@@H](CO)Cc2ccccc2)nc(N[C@@H]2C[C@H](C(C)(C)O)[C@@H](O)[C@H]2O)c1-c1nc2c(C)nccc2s1 [Example 5160]	0.5 to 5
COC1(CCNc2nc(C)c(-c3nc4c(C)nccc4s3)c(N[C@@H]3C[C@H](C(C)(C)O)[C@@H](O)[C@H]3O)n2)CCCC1 [Example 5101]	< 0.5
